Experimental data taken from patent publication US20130130305A1, “IN[…] THAT INHIBIT IAA OR A YAP FAMILY” (priority 2010, published 2013).

Columns and labels:
C. albicans [1] = test: Growth on media containing IAA (IAA sensitivity) of C. albicans CAP1 deletion mutants; type: cell-based, Candida albicans
Experimental: (§1) Analytical and phenotypic studies were performed in cognate deletion mutants, made in the Σ1278b background. A [^14C]Trp incorporation assay was performed to verify that phenotype observed in the library strain could be recapitulated in the newly constructed E1278b strain. Typically three independent transformants were isolated, confirmed by PCR and used for further studies. Standard culture conditions were used (Sherman et al., Laboratory Course Manual for Methods in Yeast Genetics, Cold Spring Harbor Laboratories Press, Cold Spring Harbor, N.Y., 1986) and analysis of IAA-associated phenotypes were performed as described earlier (Prusty et al., Proc. Natl. Acad. Sci. USA 101:4153-4157, 2004).
To test if other aspects of IAA regulation in S. cerevisiae were also conserved in C. albicans, we tested Cap1, the C. albicans homolog of Yap, for its sensitivity to IAA.

S. cerevisiae = test: IAA-associated growth inhibition phenotype in S. cerevisiae ald mutants; type: cell-based, Saccharomyces cerevisiae
Experimental: as §1
The ability of a fungus to perceive a small molecule signal that causes it to differentiate into an invasive form has important implications for host-pathogen interactions. To test the hypothesis that mutants with aberrant IAA accumulation also affect dimorphism, we examined diploid filamentation and haploid invasive growth in all ald single mutants and selected combinations of double mutants. […] We also tested a previously reported growth inhibition phenotype associated with exposure to IAA. […] However, these phenotypes are consistent with ald2Δald3Δ mutants producing more IAA than isogenic wild-type strains.

C. albicans [2] = test: IAA-induced filamentation in C. albicans; type: cell-based, Candida albicans
Experimental: as §1
IAA induces filamentation in C. albicans: The effects of the secondary metabolites identified in fungi appear to be largely species specific (Chen and Fink, Genes Dev. 20:1150-1161, 2006). […] To test whether the IAA effects could cross species barriers, we exposed wild-type C. albicans, a human pathogen, as well as attenuated mutants in the mitogen-activated protein (MAP) kinase and the cAMP-dependent protein kinase pathways to IAA. […] The cph1Δ/Δefg1Δ/Δ double mutant, which is nonfilamentous under standard laboratory conditions and avirulent in mice, filaments in the oral cavity of immunosuppressed piglets and when embedded in agar (Riggle et al., Infect. Immun. 67:3649-3652, 1999).

## O=C(O)Cc1c[nH]c2ccccc12 [IAA, indole-3-acetic acid]
C. albicans [1]; heterozygous and homozygous CAP1 deletion mutants vs isogenic wild type
  growth on media containing IAA: grew less well
C. albicans [1]; heterozygous cap1Δ/+ vs wild-type CAP1+/+ or homozygous cap1Δ/Δ
  sensitivity to IAA: intermediate sensitivity
S. cerevisiae; deletion of both ald2 and ald3 vs wild-type cells
  sensitivity to IAA (growth inhibition): increase in sensitivity to IAA
S. cerevisiae; single deletion of an ALD gene vs wild-type cells
  sensitivity to IAA (growth inhibition): did not affect IAA sensitivity
C. albicans [2]; single mutants efg1Δ/Δ or cph1Δ/Δ, exposed to IAA
  filamentation: showed a robust filamentation
C. albicans [2]; wild-type strains, treated with IAA vs untreated cells
  filamentation: filamented more
